Patent US20230234996A1, “PI3K GAMMA INHIBITOR PEPTIDE FOR TREATMENT OF FIBROPROLIFERATIVE VASCULAR DISEASES” (Kither Biotech S.r.l., priority 2020, published 2023)
Entries after “also recorded” stand apart in the source; their conditions may differ.

Assays:
[1] = test system: intracellular cAMP in primary VSMC; experiment: cAMP dynamics with FRET-based TEpacVV biosensor; assay type: cell-based, mouse; settings: for cAMP level regulated by PDE3 (cilostamide response): cilostamide 1 μM; for cAMP production in response to forskolin: Rmax = forskolin 2.5 μM + IBMX 200 μM; for cAMP level regulated by PDE4 (rolipram response): rolipram 1 μM
Method: A. Left panel: Average changes in intracellular cAMP concentration ([cAMP]i) in primary VSMC from WT (top), PI3Kγ KO (middle) and PI3Kγ-KD (bottom) mice and expressing the ^TEpac^VV biosensor. The black line represents the average F480/F535 emission ratio over time in response to 2.5 μM forskolin (fsk) stimulation and fsk (2.5 μM)+IBMX (200 μM) treatment. B. Histograms representing the mean values for forskolin responses. Results are expressed as a percentage of the maximal ratio change (% of Rmax(IBMX response)) determined by the final application of forskolin (2.5 μM)+IBMX (200 μM). Data shown are the means±SEM. (n=5 mice). Data are presented as mean±SEM and were compared using a Kruskal-Wallis test. C. Homogenous time-resolved fluorescence (HTRF) dosage of intracellular cAMP from WT, PI3Kγ KO or PI3Kγ KD primary VSMC after 30 min treatment with vehicle or 0.5 μM Forskolin.
A. Average changes in [cAMP]i in primary VSMC from WT (top), PI3Kγ KO (middle) and PI3Kγ-KD (bottom) mice and expressing the ^TEpac^VV biosensor. The trace indicates the average F480/F535 emission ratio over time in response to 2.5 μM forskolin, cilostamide (1 μM), rolipram (1 μM) and forskolin (2.5 μM)+IBMX (200 μM) treatment. B. Histograms representing the mean values for rolipram and cilostamide responses. Results are expressed as a percentage of the maximal ratio change (% of Rmax (IBMX response)) determined by the final application of forskolin (2.5 μM)+IBMX (200 μM). Data are presented as mean±SEM (n>22 with 4 different mice) and were compared using a Kruskal-Wallis test. C. Phosphodiesterase activity detected in PDE4D immunoprecipitates from primary VSMC. Data shown are the means±SEM and compared using one-way ANOVA followed by Bonferroni post-hoc test (n=3). D. Representative Western blot of PDE4D immunoprecipitates.
Measurement of cAMP dynamics: Primary SMC were seeded on coverslips and infected with the ^TEpac^VV-encoding type-5 adenovirus (˜100 particles per SMC) as described elsewhere. Coverslips were placed in a microscope chamber continually perfused (2 mL·min^−1) with BBS buffer (125 mM NaCl, 2 mM CaCl2), 1 mM MgCl2, 1.25 mM NaH2PO4, 26 mM NaHCO3, 25 mM glucose) saturated with 95% 02-5% CO2. Ratiometric analyses were performed as follows: fluorescence was excited with a LED source at 435 nm and fluorescence emission was monitored with a dichroic mirror (T450LPXR) and alternating emission filters for the donor (HQ480/40) and acceptor (D535/40). Pairs of images were recorded with an Orca-ER CCD camera (Hamamatsu Photonics, Japan), at 20-s intervals. Changes in [cAMP]i are expressed as the ratio of donor fluorescence (F480) to acceptor fluorescence (F535). The ratios were multiplied by a same constant for all experiments, such that the baseline ratio was 1 in basal conditions. The maximum ratio change (Rmax) was obtained by stimulating cells with 2.5 μM forskolin and […] IBMX (15879, Sigma Aldrich). Filters and mirrors were obtained from AHF analysentechnik AG, Tübingen, Germany.

PKA = settings: reference [19]; cited from earlier work
[2] = test system: C5a-mediated Akt phosphorylation (Ser-473), relying on the catalytic activity of PI3Kγ, RAW264 macrophages; experiment: C5a-mediated Akt phosphorylation in macrophages (Western blot); assay type: cell-based; settings: then C5a 5 min
Method: A. Schematic representation of the cell-permeable PI3Kγ competing peptide. The 126-150 region of PI3Kγ was fused to the cell-penetrating peptide Penetratin 1 (P1). A control peptide was generated by insertion of two point mutations (K>A and R>A at position 1 and 5 of the PI3Kγ sequence, respectively). B. RAW macrophages were pre-treated with vehicle, the PI3Kγ peptide (10 μM) or the PI3Kγ kinase inhibitor AS605240 (1 μM) for 1 hour and then with C5a (50 μM) for 5 minutes. Representative Western blot images of phospho-AKT (Ser-473) and total AKT (left) and ratio quantification (right) are shown. GAPDH was used as loading control. n=3. C. Incorporation by primary VSMC of a FITC-labelled PI3Kγ peptide at 1 h, 5 h, 24 h and 30 h after incubation. D. Quantification of FITC-associated fluorescence intensity inside VSMC area. C5a-mediated Akt phosphorylation in macrophages: After 3 h starvation in serum-free medium, RAW264 macrophages were pre-treated with the PI3Kγ competing peptide (25 μM) or the PI3Kγ inhibitor AS-605240 (1 μM; MedChemExpress) or DMSO for 30 min and stimulated for 5 min with 50 nM of C5a (Sigma Aldrich). Akt phosphorylation at Ser-473 was detected by Western blot using a Ser473 Akt-specific antibody (Cell Signaling Technology).

primary VSMC = experiment: Mouse SMC proliferation by BrdU incorporation; assay type: cell-based; settings: for cell proliferation (BrdU incorporation): 25 μM peptide 24 h, PDGF 25 ng/ml with or without forskolin 25 μM, vs control peptide
Method: A. Representatives cross sections of injured femoral arteries stained with Masson Trichrome from the indicated hematopoietic chimeras. Scale bars=100 μM. Irradiated WT, PI3Kγ KD (KD) and PI3Kγ KO recipient mice were transplanted with bone marrow from the indicated donors to obtain the indicated chimeras. Irradiated WT mice were transplanted with bone marrow from WT, PI3Kγ KD or PI3Kγ KO to obtain the following hematopoietic chimeras: WT>WT, KD>WT and KO>WT. Irradiated KD recipient mice were transplanted with bone marrow from WT or PI3Kγ KD donor mice (WT>KD; KD>KD). Irradiated KO recipient mice were transplanted with bone marrow from WT or KO donors (WT>KO and KO>KO). B. Quantitative analysis of intima/media ratios of indicated hematopoietic chimeras. Histogram represents the neointima/media ratio for each chimera (n>6 mice for each group). Data are presented as mean±SEM and were compared using a one-way ANOVA test. C. Schematic representation of the experimental model used to investigate PI3Kγ implication in the control of SMC proliferation. D. Western blot of PI3Kγ expression in each genotype. […] (5<n<12 cultures for each genotype). Data are presented as mean±SEM and were compared using a one-way ANOVA test.
A, B, C. […] BrdU was added during the last 18 h (n=8 cultures for each genotype). Data are presented as mean±SEM and were compared using a one-way ANOVA test. D. Schematic model of PI3Kγ implication in VSMC proliferation. VSMC proliferation is induced by PDGF stimulation. […] This PI3Kγ recruitment could also concentrate phosphodiesterases (PDE) that counterbalance cAMP production by adenylate cyclase (AC) induced by other signals. By these mechanisms, PI3Kγ acts as an amplifier of VSMC synthetic transition.
Measure of mouse SMC proliferation: Primary mouse SMCs were sub-cultured onto 48-well cell culture plates in complete medium. Cells were treated or not with PDGF (520-BB-050, R&D Systems) and forskolin (F3917, Sigma Aldrich) for 24 h. For blocking peptide experiments, cells were incubated 24 h with 25 μM of control ([…]—SEQ ID No.: 13) or blocking peptide ([…]—SEQ ID No.: 14). Peptides were synthesized by GenScript (GenScript, Piscataway, N.J.). BrdU (00-0103, Invitrogen) incorporation assays were performed by classical immunofluorescence procedure using anti-BrdU antibody (11-5071, eBioscience) and DAPI. Proliferation rate is measured as the ratio of BrdU positive nuclei over total nuclei and expressed as fold increase.

PDE4D = PDE4D function in VSMC; assay type: cell-based; settings: summary statement
[3] = forskolin-stimulated PI3Kγ-KD VSMC
[4] = forskolin-stimulated PI3Kγ-KO VSMC

CN(C(=O)CCCOc1ccc2[nH]c(=O)ccc2c1)C1CCCCC1 [cilostamide]
cAMP level regulated by PDE3 (cilostamide response) [1, 3]: 17 % of IBMX response | cAMP level regulated by PDE3 (cilostamide response) [1, 4]: 49 % of IBMX response | cAMP level regulated by PDE3 (cilostamide response) ([1]; forskolin-stimulated WT VSMC): 25 % of IBMX response

RQIKIWFQNRRMKWKKGAATHASPGQIHLVQRHPPSEESQAF (control peptide)
interaction with PKA (PKA): does not interact with PKA

C=C[C@@]1(C)CC(=O)[C@]2(O)[C@@]3(C)[C@@H](O)CCC(C)(C)[C@@H]3[C@H](O)[C@H](OC(C)=O)[C@@]2(C)O1 [forskolin]
cAMP production in response to forskolin ([1]; 2.5 μM forskolin, PI3Kγ-KO primary VSMC): 52.57 % of IBMX response | cAMP production in response to forskolin ([1]; 2.5 μM forskolin, WT primary VSMC): 24.09 % of IBMX response | increase of forskolin cAMP response, PI3Kγ-KO compared to WT ([1]; 2.5 μM forskolin, p=0.03): 2.2 folds

RQIKIWFQNRRMKWKKGKATHRSPGQIHLVQRHPPSEESQAF (KIT2014) [PI3Kγ peptide, The 126-150 region of PI3Kγ fused to the cell-penetrating peptide Penetratin 1 (P1)]
C5a-mediated Akt phosphorylation in macrophages ([2]; RAW macrophages pre-treated with PI3Kγ peptide (25 μM b74; 10 μM b24)): unaltered | cell proliferation (BrdU incorporation) (primary VSMC; PI3Kγ-KD primary VSMC): inhibited cell proliferation | cell proliferation (BrdU incorporation) (primary VSMC; PI3Kγ-KO primary VSMC): no difference was observed | VSMC proliferation (primary VSMC; VSMC in vitro, response to PDGF and forskolin, genotype not stated (summary statement)): abolished VSMC proliferation; also recorded: inhibits VSMC proliferation | cell proliferation (BrdU incorporation) (primary VSMC; WT primary VSMC): inhibited cell proliferation | cAMP levels in VSMC ([1]; peptide conjugated with Penetratin 1, summary statement): increases their cAMP levels | PDE4D function (PDE4D): specifically blunted PDE4D function

COc1ccc(C2CNC(=O)C2)cc1OC1CCCC1 (stereo not drawn) [rolipram]
cAMP level regulated by PDE4 (rolipram response) [1, 3]: 73 % of IBMX response | cAMP level regulated by PDE4 (rolipram response) [1, 4]: 43 % of IBMX response | cAMP level regulated by PDE4 (rolipram response) ([1]; forskolin-stimulated WT VSMC): 67 % of IBMX response

O=C1NC(=O)/C(=C\c2ccc3nccnc3c2)S1 [AS-6052540]
C5a-mediated Akt phosphorylation in macrophages ([2]; RAW macrophages pre-treated with inhibitor 1 μM): significantly reduced
